Experiments:
Type in all cases: in vivo
[1] = test system: sedge, umbrella (small-flower umbrella sedge, Cyperus difformis); experiment: Test B flooded paddy test, umbrella sedge; details: Flood, 250 g ai/ha, applied to paddy water, 2-leaf stage, visual evaluation after 13 to 15 d
Procedure, shortened: (§1)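 Plants grown to 2-leaf stage. Compounds applied directly into paddy water flooded 3 cm above soil, with that depth kept throughout. After 13–15 d in greenhouse, visual rating versus controls on a 0–100 scale (0 no effect, 100 complete control).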

rice (Oryza sativa) = experiment: Test B flooded paddy test, rice; details: Flood, 250 g ai/ha, applied to paddy water, 2-leaf stage, visual evaluation after 13 to 15 d
Procedure, shortened: as §1

[2] = test system: foxtail, giant (Setaria faberii); experiment: Test A postemergence, giant foxtail; details: 0 to 100 scale, 0 no effect, 100 complete control
Procedure, shortened: (§2)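 Pots of loam–sand mix; preemergence directed soil spray at sowing, postemergence spray at one- to two-leaf stage. Readout: visual injury vs untreated controls, ~10 d, 0–100 scale.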

corn (Zea mays) = experiment: Test A postemergence, corn; details: 0 to 100 scale, 0 no effect, 100 complete control
Procedure, shortened: as §2

[3] = test system: barnyardgrass (Echinochloa crus-galli); experiment: Test B flooded paddy test, barnyardgrass; details: Flood, 250 g ai/ha, applied to paddy water, 2-leaf stage, visual evaluation after 13 to 15 d
Procedure, shortened: as §1

[4] = test system: wheat (Triticum aestivum); experiment: Test A postemergence, wheat; details: 0 to 100 scale, 0 no effect, 100 complete control
Procedure, shortened: as §2

[5] = test system: ducksalad (Heteranthera limosa); experiment: Test B flooded paddy test, ducksalad; details: Flood, 250 g ai/ha, applied to paddy water, 2-leaf stage, visual evaluation after 13 to 15 d
Procedure, shortened: as §1

[6] = test system: ryegrass, Italian (Lolium multiflorum); experiment: Test A preemergence, Italian ryegrass; details: 0 to 100 scale, 0 is no effect, 100 is complete control
Procedure, shortened: as §2

[7] = test system: barnyardgrass (Echinochloa crus-galli); experiment: Test A preemergence, barnyardgrass; details: 0 to 100 scale, 0 is no effect, 100 is complete control
Procedure, shortened: as §2

[8] = test system: ragweed (common ragweed, Ambrosia elatior); experiment: Test A preemergence, ragweed; details: 0 to 100 scale, 0 is no effect, 100 is complete control
Procedure, shortened: as §2

[9] = test system: ryegrass, Italian (Lolium multiflorum); experiment: Test A postemergence, Italian ryegrass; details: 0 to 100 scale, 0 no effect, 100 complete control
Procedure, shortened: as §2

[10] = test system: pigweed (Amaranthus retroflexus); experiment: Test A postemergence, pigweed; details: 0 to 100 scale, 0 no effect, 100 complete control
Procedure, shortened: as §2

[11] = test system: pigweed (Amaranthus retroflexus); experiment: Test A preemergence, pigweed; details: 0 to 100 scale, 0 is no effect, 100 is complete control
Procedure, shortened: as §2

kochia (Kochia scoparia) [12] = experiment: Test A postemergence, kochia; details: 0 to 100 scale, 0 no effect, 100 complete control
Procedure, shortened: as §2

kochia (Kochia scoparia) [13] = experiment: Test A preemergence, kochia; details: 0 to 100 scale, 0 is no effect, 100 is complete control
Procedure, shortened: as §2

[14] = test system: foxtail, giant (Setaria faberii); experiment: Test A preemergence, giant foxtail; details: 0 to 100 scale, 0 is no effect, 100 is complete control
Procedure, shortened: as §2

[15] = test system: galium (catchweed bedstraw, Galium aparine); experiment: Test A postemergence, galium; details: 0 to 100 scale, 0 no effect, 100 complete control
Procedure, shortened: as §2

[16] = test system: ragweed (common ragweed, Ambrosia elatior); experiment: Test A postemergence, ragweed; details: 0 to 100 scale, 0 no effect, 100 complete control
Procedure, shortened: as §2

[17] = test system: barnyardgrass (Echinochloa crus-galli); experiment: Test A postemergence, barnyardgrass; details: 0 to 100 scale, 0 no effect, 100 complete control
Procedure, shortened: as §2

[18] = test system: blackgrass (Alopecurus myosuroides); experiment: Test A postemergence, blackgrass; details: 0 to 100 scale, 0 no effect, 100 complete control
Procedure, shortened: as §2

| SMILES | Plant response rating, Sedge, Umbrella (0 to 100 scale, 0 is no effect, 100 is complete control) [1] | Plant response rating, Rice (0 to 100 scale, 0 is no effect, 100 is complete control) (rice (Oryza sativa)) | Plant response rating, Foxtail, Giant ([2]; 125 g ai/ha) | Plant response rating, Foxtail, Giant ([2]; 500 g ai/ha) | Plant response rating, Corn (corn (Zea mays); 125 g ai/ha) | Plant response rating, Corn (corn (Zea mays); 500 g ai/ha) | Plant response rating, Barnyardgrass (0 to 100 scale, 0 is no effect, 100 is complete control) [3] | Plant response rating, Wheat ([4]; 125 g ai/ha) | Plant response rating, Wheat ([4]; 500 g ai/ha) | Plant response rating, Ducksalad (0 to 100 scale, 0 is no effect, 100 is complete control) [5] | Ryegrass, Italian plant response rating ([6]; 125 g ai/ha) | Ryegrass, Italian plant response rating ([6]; 500 g ai/ha) | Barnyardgrass plant response rating ([7]; 125 g ai/ha) | Barnyardgrass plant response rating ([7]; 500 g ai/ha) | Ragweed plant response rating ([8]; 125 g ai/ha) | Ragweed plant response rating ([8]; 500 g ai/ha) | Plant response rating, Ryegrass, Italian ([9]; 125 g ai/ha) | Plant response rating, Ryegrass, Italian ([9]; 500 g ai/ha) | Plant response rating, Pigweed ([10]; 125 g ai/ha) | Plant response rating, Pigweed ([10]; 500 g ai/ha) | further results |
| --- | --- | --- | --- | --- | --- | --- | --- | --- | --- | --- | --- | --- | --- | --- | --- | --- | --- | --- | --- | --- | --- |
| Cc1nc(NC(C)c2coc3ccccc23)nc(N)c1C(F)(F)F (stereo not drawn) [Compound 106] | 0 | 0 | 0 | 0 | 0 | 0 | 0 | 0 | 0 | 0 | 0 | 30 | 0 | 0 | 60 | 100 | 0 | 0 | 70 | 100 | Pigweed plant response rating ([11]; 125 g ai/ha): 30; Pigweed plant response rating ([11]; 500 g ai/ha): 100; Plant response rating, Kochia (kochia (Kochia scoparia) [12]; 125 g ai/ha): 80; Plant response rating, Kochia (kochia (Kochia scoparia) [12]; 500 g ai/ha): 90; Kochia plant response rating (kochia (Kochia scoparia) [13]; 125 g ai/ha): 80; Kochia plant response rating (kochia (Kochia scoparia) [13]; 500 g ai/ha): 90; Foxtail, Giant plant response rating ([14]; 125 g ai/ha): 0; Foxtail, Giant plant response rating ([14]; 500 g ai/ha): 50; Plant response rating, Galium ([15]; 125 g ai/ha): 70; Plant response rating, Galium ([15]; 500 g ai/ha): 80; Plant response rating, Ragweed ([16]; 125 g ai/ha): 20; Plant response rating, Ragweed ([16]; 500 g ai/ha): 100; Plant response rating, Barnyardgrass ([17]; 125 g ai/ha): 0; Plant response rating, Barnyardgrass ([17]; 500 g ai/ha): 30; Plant response rating, Blackgrass ([18]; 125 g ai/ha): 0; Plant response rating, Blackgrass ([18]; 500 g ai/ha): 0 |
| CC(Nc1ncc(S(C)(=O)=O)c(N)n1)c1cc2ccccc2s1 (stereo not drawn) [Compound 107] | 75 | 0 | 10 | 60 | 0 | 30 | 45 | 0 | 30 | 70 | 50 | 90 | 20 | 100 | 100 | 100 | 0 | 40 | 80 | 100 | Pigweed plant response rating ([11]; 125 g ai/ha): 60; Pigweed plant response rating ([11]; 500 g ai/ha): 100; Plant response rating, Kochia (kochia (Kochia scoparia) [12]; 125 g ai/ha): 50; Plant response rating, Kochia (kochia (Kochia scoparia) [12]; 500 g ai/ha): 90; Kochia plant response rating (kochia (Kochia scoparia) [13]; 125 g ai/ha): 80; Kochia plant response rating (kochia (Kochia scoparia) [13]; 500 g ai/ha): 100; Foxtail, Giant plant response rating ([14]; 125 g ai/ha): 30; Foxtail, Giant plant response rating ([14]; 500 g ai/ha): 100; Plant response rating, Galium ([15]; 125 g ai/ha): 70; Plant response rating, Galium ([15]; 500 g ai/ha): 80; Plant response rating, Ragweed ([16]; 125 g ai/ha): 40; Plant response rating, Ragweed ([16]; 500 g ai/ha): 100; Plant response rating, Barnyardgrass ([17]; 125 g ai/ha): 20; Plant response rating, Barnyardgrass ([17]; 500 g ai/ha): 100; Plant response rating, Blackgrass ([18]; 125 g ai/ha): 0; Plant response rating, Blackgrass ([18]; 500 g ai/ha): 80 |

Source: patent US20220119354A1, “DIAMINO-SUBSTITUTED PYRIDINES AND PYRIMIDINES AS HERBICIDES” (FMC Corporation, priority 2019, published 2022)
